Reference: patent EP2891500B1, “Contrast agent for determination of aldehyde dehydrogenase (ALDH) activity” (Cambridge Enterprise Limited, priority 2014, dated 2015)
Where “and” joins values, the source holds several entries; their conditions need not be identical. Equal entries are not always repeated. Each block holds one molecule with its values, some of them ahead of it.

Assays:
[1] = 13C T1 measurements in vitro (inversion recovery, 11 T); assay type: physicochemical; details: PBS buffer, pH 7.5, containing 4% BSA, n=2
Method: ^13C T1 measurements in vitro: Measurements were made at 11 T (Bruker Avance II^+ 500 MHz spectrometer) using an inversion recovery sequence in samples containing approximately 10 mM [1-^13C] ethanol or 1 M ethanol, 10% D2O and 4% BSA (Sigma Aldrich), buffered with PBS to pH 7.5. A TR of 300 seconds and 16 delays between 1 and 200 seconds were used for measurements with [1-^13C, U-^2H5] ethanol and a TR of 50 seconds and 16 delays between 0.5 and 50 seconds were used for measurements of the natural abundance ^13C signal from 1M ethanol.

[2] = Hyperpolarisation by dynamic nuclear polarization and liquid state polarization measurement; assay type: physicochemical
Method: A 2:3 glycerol: [1-^13C] ethanol mixture, containing 15 mM trityl radical (OX063: tris (8-carboxy-2,2,6,6-tetra-(hydroxyethyl)-benzo-[1,2-4,50]-bis-(1,3)-dithiole-4-yl)-methyl, sodium salt; GE Healthcare, Little Chalfont, UK) and 1.5 mM gadoteric acid (DOTAREM; Guebert, Roissy, France), was polarized for approximately 120 minutes in a 3.35 T Hypersense polarizer (Oxford Instruments, Abingdon, Oxfordshire, UK) using irradiation at 94.124 GHz. The dissolution buffer (PBS, pH 7.5, 100 mg/L EDTA) was heated to 180°C and pressurized to 10 bar before dissolving the frozen polarized samples. The dissolved sample contained 110 mM [1-^13C] ethanol. For measurements of the liquid state polarization a sample of [1-^13C] ethanol was polarized and dissolved as described above. Two mL of the sample, containing approximately 60 mM [1-^13C] ethanol were injected into 2 mL of PBS buffer, pH 7.4 in a 10 mm NMR tube placed inside a vertical bore 9.4 T NMR spectrometer with a broadband probe tuned to ^13C (Varian NMR Instruments, Palo Alto, CA, U.S.). Immediately following injection and approximately 9 seconds after dissolution, 180 single transient spectra, with a nominal pulse flip angle of 6° and 8 kHz spectral width, were acquired with a TR of 1 second. Three 90° pulses were then applied to eliminate the remaining hyperpolarisation. A ^13C spectrum (the sum of 128 transients) was then acquired using a 6° pulse, a spectral width of 8 kHz, and a TR of 300 seconds. The temperature of the sample was kept at 37°C. The liquid state polarization was calculated from the ratio of the maximal integrated intensity of the hyperpolarised [1-^13C] ethanol signal to the integrated intensity of the thermal equilibrium signal corrected for the number of transients.

[3] = Measurement of blood ethanol level (13C MRS on plasma samples); assay type: in vivo, mice; details: for ethanol concentration in plasma: plasma withdrawn 75 seconds after start of i.v. injection of 10 µl per g body weight of 110 mM ethanol
Method: Measurement of blood ethanol level: An appropriate volume of [2-^13C] ethanol, polarized and dissolved to the same concentration as [1-^13C] ethanol, was injected into the tail vein of animals that had been anesthetized for 30-45 minutes. Blood was withdrawn by cardiac puncture, which began 75 seconds after the start of ethanol injection and was completed within 30 seconds. Individual blood samples were transferred into separate BD Microtainer FE micro-collection tubes (BD, Franklin Lakes, NJ, US), centrifuged at 800 g and the plasma removed and frozen in liquid nitrogen. For NMR spectroscopy, plasma samples were thawed and diluted in 200 mM PBS in D2O, pH 7.5. The buffer contained 100 mM TMSP (2,2,3,3-D4 sodium-3-trimethylsilylpropionate) as an intensity and chemical shift standard (Cambridge Isotope Laboratories, Inc. Andover MA, US). ^13C spectra (the sum of 1024 transients) were acquired under fully relaxed conditions at 125 MHz (Bruker Avance II^+ 500 MHz spectrometer) into 25,294 data points using a 90° pulse, a sweep width of 5 kHz, and a TR of 35 seconds. Integrated intensities of the 2-^13C ethanol and 2-^13C acetate resonances were normalized to that of TMSP and multiplied by the methyl ^13C concentration in 100 mM TMSP (3.33 mM) in order to convert to acetate or ethanol concentrations.

ALDH2 [4] = biological target: T1, ALDH2 (Mus musculus, UniProt P47738); test: In vivo 13C MRS of acetate production from hyperpolarised [1-13C, U-2H5]ethanol in liver after disulfiram treatment; design: species or system mice; details: approximately 24 hours before MRS
T1 construct: animals were killed and their livers rapidly excised, freeze-clamped and stored at - 80°C before homogenization and enzyme assay; from tissue; host or cells: Triton X-100 extract of freeze-clamped mouse liver
T1 sequence (P47738 20-519): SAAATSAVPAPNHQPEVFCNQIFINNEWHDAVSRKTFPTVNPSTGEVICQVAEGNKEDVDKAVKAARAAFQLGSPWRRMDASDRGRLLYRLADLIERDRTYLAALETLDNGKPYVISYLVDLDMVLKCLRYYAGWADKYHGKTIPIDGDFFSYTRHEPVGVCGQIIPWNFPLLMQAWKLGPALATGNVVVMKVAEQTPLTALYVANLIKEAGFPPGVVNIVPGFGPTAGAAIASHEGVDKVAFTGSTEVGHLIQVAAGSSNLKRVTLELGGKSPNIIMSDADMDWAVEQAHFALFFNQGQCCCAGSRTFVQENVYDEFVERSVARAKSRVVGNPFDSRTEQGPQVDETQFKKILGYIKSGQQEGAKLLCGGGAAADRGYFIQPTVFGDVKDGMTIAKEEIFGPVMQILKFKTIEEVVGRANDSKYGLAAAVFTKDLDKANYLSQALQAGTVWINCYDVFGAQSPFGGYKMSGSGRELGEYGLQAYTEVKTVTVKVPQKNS
From the text: All animal experiments were approved by local ethical review committees and performed in accordance with the Animals (Scientific Procedures) Act of 1986. Female CD1 mice (6-8 weeks old) were used in all experiments. Animals were anaesthetized using 3 % isoflurane vapor (Isoflo, Abbotts Laboratories Ltd, Maidenhead, UK) in an oxygen/air mixture. Anesthesia was maintained during the MR experiments with 1-2 % isoflurane vapor in an oxygen/air mixture delivered via a face mask.
In vivo NMR spectroscopy: A catheter was inserted in a tail vein and the mouse placed in a heated cradle. Throughout the experiment animal breathing rate and core body temperature were monitored using a Biotrig physiological monitor (Small Animal Instruments, Stony Brook, NY), which were within the range of 60-100 bpm and 36-37°C, respectively. A 20 mm diameter surface coil (Rapid Biomedical GmbH, Rimpar, Germany) was placed over the liver and the entire assembly placed in a ^13C/^1H volume coil (Rapid Biomedicals, Germany), in a 7T horizontal bore magnet (Varian, Palo Alto, CA). Livers were localized in transverse ^1H images, acquired using a spin-echo pulse sequence (TR, 1.5 s; echo time (TE), 10 ms; field of view, 40 mm x 40 mm; data matrix, 128 x 128; slice thickness, 2 mm; 15 slices). […] All data were phase and baseline corrected and the signal integrals for ethanol and acetate measured. […]

ALDH2 [5] = biological target: T1, ALDH2; test: ALDH2 activity assay in liver extracts of treated animals; assay type: biochemical, mice; details: 24 hours after 600 mg/kg body weight disulfiram, versus control animals
Method: Animals were given 100 mg/kg or 600 mg/kg body weight of disulfiram as a suspension in 5% w/v of gum arabicum, by oral gavage (Spielman, D.M., Mayer, D., Yen, Y.F., Tropp, J., Hurd, R.E., Pfefferbaum, A., "In vivo measurement of ethanol metabolism in the rat liver using magnetic resonance spectroscopy of hyperpolarised [1-13C]pyruvate.", Magn.Reson.Med. 2009; 62: 307-313). ^13C MRS experiments were performed approximately 24 hours after drug administration. In some experiments, shortly after completion of MRS measurements, animals were killed and their livers rapidly excised, freeze-clamped and stored at - 80°C before homogenization and enzyme assay.
Liver Tissue Extraction: Freeze-clamped livers were homogenized using a manual Potter S homogenizer (Sartorius, Epsom, UK) in 7 volumes (mL per gram wet weight of liver) of ice-cold extraction buffer (50 mM Tris-HCl, pH 7.4 containing 0.25 M sucrose, 0.1 % v/v 2-mercaptoethanol, 1 mM EDTA and protease inhibitor cocktail (Roche)). Ten strokes of 5 seconds (each followed by a 5 second pause) at 1000 r.p.m. were used. […]
ALDH2 activity assay: The assay mixture containing 0.5 mM NAD^+, 0.1 % v/v of 2-mercaptoethanol, 200 mM KCl in 100 mM sodium pyrophosphate buffer, pH 9.0. […] The formation of NADH was measured for 5 minutes after substrate addition as an increase in absorbance at 340 nm using a Tecan Sunrise 96 well plate reader. […]

^13C T1 [1]: 56 s | polarization buildup time constant of dynamic nuclear polarization ([2]; 3.35 T Hypersense polarizer, n=3): 41.2 ± 5.5 min | T1 calculated from the decay of the polarization ([2]; hyperpolarised sample in PBS, 9.4 T, 37°C, SD, n=3): 53.7 ± 3.2 s | liquid state polarization ([2]; measured approximately 9 seconds after dissolution): 14.1 ± 3.3%
Compound: [2H]C([2H])([2H])[13C]([2H])([2H])O [[1-^13C, U-^2H5]ethanol]

[1-^13C] acetate concentration in plasma ([3]; plasma withdrawn 75 seconds after start of ethanol injection, SD, n=3): 0.93 ± 0.29 mM | ethanol concentration in plasma ([3]; SD, n=3): 1.73 ± 0.48 mM
Compound: [13CH3]CO [[2-^13C] ethanol]

decrease of the maximum acetate signal (normalized to the maximum ethanol signal) (ALDH2 [4]; disulfiram 100 mg/kg by oral gavage, n=1): approximately 43% | decrease of the maximum acetate signal (normalized to the maximum ethanol signal) (ALDH2 [4]; disulfiram 600 mg/kg body weight by oral gavage, SD, n=3): 79 ± 8% and ~79% | decrease of ALDH2 activity in liver extracts (ALDH2 [5]): 68%
Compound: CCN(CC)C(=S)SSC(=S)N(CC)CC [disulfiram]

^13C T1 [1]: 9.9 s | expected ethanol concentration at equilibrium ([3]; calculated for 10 µl per g body weight of 110 mM ethanol, assuming water is approximately 74% of body weight): approximately 1.5 mM | ethanol concentration in plasma ([3]; SD, n=3): 1.73 mM
Compound: CCO [ethanol]
